Here are results for 22 molecules from patent publication US9975874B2, “Factor XIa inhibitors” (Merck Sharp & Dohme Corp., priority 2014, dated 2018).

Experiment [1] deals with purified human Factor XIa (Homo sapiens (Human), UniProt P03951). Briefly: Factor XIa Assay. It is filed as biochemical. As to conditions: substrate Z-Gly-Pro-Arg-AFC 100 μM, 40 pM enzyme, pH 7.4; read-out: FXIa IC50. How it is done: The effectiveness of a compound of the present invention as an inhibitor of Coagulation Factor XIa can be determined using a relevant purified serine protease, and an appropriate synthetic substrate. The rate of hydrolysis of the chromogenic or fluorogenic substrate by the relevant serine protease was measured both in the absence and presence of compounds of the present invention. Assays were conducted at room temperature or at 37° C. […] A decrease in the rate of fluorescence change in the presence of inhibitor is indicative of enzyme inhibition. Such methods are known to one skilled in the art. […]
Factor XIa determinations were made in 50 mM HEPES buffer at pH 7.4 containing 150 mM NaCl, 5 mM CaCl2, and 0.1% PEG 8000 (polyethylene glycol; JT Baker or Fisher Scientific). Determinations were made using purified human Factor XIa at a final concentration of 40 pM (Sekisui Diagnostics) and the synthetic substrate, Z-Gly-Pro-Arg-AFC, TFA salt (Sigma #C0980) at a concentration of 100 μM.
Times required to achieve equilibration between enzyme and inhibitor were determined in control experiments. Initial velocities of product formation in the absence (Vo) or presence of inhibitor (Vi) were measured. Assuming competitive inhibition, and that unity is negligible compared Km/[S], [I]/e, and [I]/e (where [S], [I], and e respectively represent the total concentrations, of substrate, inhibitor and enzyme), the equilibrium constant (Ki) for dissociation of the inhibitor from the enzyme can be obtained from the dependence of Vo/Vi on [I] shown in the following equation.

The target in experiment [2] is purified Human plasma kallikrein (Homo sapiens (Human), UniProt P03952). Description: Kallikrein Assay. The settings on record: Plasma kallikrein; substrate Acetyl-K-P-R-AFC, 0.5 nM enzyme, pH 7.4; read-out: PK IC50. It is filed as biochemical. As for the experimental part: The effectiveness of a compound of the present invention as an inhibitor of Kallikrein can be determined using a relevant purified serine protease, and an appropriate synthetic substrate. The rate of hydrolysis of the chromogenic or fluorogenic substrate by the relevant serine protease was measured both in the absence and presence of compounds of the present invention. Assays were conducted at room temperature or at 37° C. […] A decrease in the rate of fluorescence change in the presence of inhibitor is indicative of enzyme inhibition. Such methods are known to one skilled in the art. The results of this assay are expressed as the inhibitory constant, Ki.
Kallikrein determinations were made in 50 mM HEPES buffer at pH 7.4 containing 150 mM NaCl, 5 mM CaCl2, and 0.1% PEG 8000 (polyethylene glycol; Fisher Scientific). Determinations were made using purified Human plasma kallikrein at a final concentration of 0.5 nM (Enzyme Research Laboratories) and the synthetic substrate, Acetyl-K-P-R-AFC (Sigma # C6608) at a concentration of […].
Times required to achieve equilibration between enzyme and inhibitor were determined in control experiments. The reactions were performed under linear progress curve conditions and fluorescence increase measured at 405 Ex/510 Em nm. […] IC50 was determined by inflection point from a four parameter logistic curve fit. Ki was calculated using the Cheng Prusoff equation, Ki=IC50/(1+([S]/Km)).

pIC50: −log10 of the molar value.

Chain of purified Human plasma kallikrein (P03952 391-638): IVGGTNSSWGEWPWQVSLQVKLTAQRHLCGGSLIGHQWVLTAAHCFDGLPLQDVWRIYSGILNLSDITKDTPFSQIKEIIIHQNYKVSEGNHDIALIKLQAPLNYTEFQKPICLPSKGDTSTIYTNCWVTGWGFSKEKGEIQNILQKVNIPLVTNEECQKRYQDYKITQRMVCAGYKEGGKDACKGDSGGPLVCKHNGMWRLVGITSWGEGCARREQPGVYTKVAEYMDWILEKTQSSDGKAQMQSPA
Chain of purified Human plasma kallikrein (P03952 20-390 partner): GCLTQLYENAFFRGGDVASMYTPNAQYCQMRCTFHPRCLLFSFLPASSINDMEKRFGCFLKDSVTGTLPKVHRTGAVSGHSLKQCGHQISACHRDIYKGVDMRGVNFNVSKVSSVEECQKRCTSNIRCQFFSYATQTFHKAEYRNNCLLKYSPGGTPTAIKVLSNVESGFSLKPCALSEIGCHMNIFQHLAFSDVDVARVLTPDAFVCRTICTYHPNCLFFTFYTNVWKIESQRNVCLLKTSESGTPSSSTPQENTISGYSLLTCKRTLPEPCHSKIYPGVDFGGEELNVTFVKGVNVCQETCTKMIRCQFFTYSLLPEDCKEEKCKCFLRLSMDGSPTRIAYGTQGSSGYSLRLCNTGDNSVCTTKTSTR
Chain of purified human Factor XIa (P03951 388-625): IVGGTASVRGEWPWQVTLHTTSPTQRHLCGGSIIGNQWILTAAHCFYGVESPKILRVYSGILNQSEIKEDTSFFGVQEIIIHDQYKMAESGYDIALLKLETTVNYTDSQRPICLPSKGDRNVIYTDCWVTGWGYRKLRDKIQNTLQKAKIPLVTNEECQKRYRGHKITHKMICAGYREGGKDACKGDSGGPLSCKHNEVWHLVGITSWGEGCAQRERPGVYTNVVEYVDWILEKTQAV
Chain of purified human Factor XIa (P03951 19-387 partner): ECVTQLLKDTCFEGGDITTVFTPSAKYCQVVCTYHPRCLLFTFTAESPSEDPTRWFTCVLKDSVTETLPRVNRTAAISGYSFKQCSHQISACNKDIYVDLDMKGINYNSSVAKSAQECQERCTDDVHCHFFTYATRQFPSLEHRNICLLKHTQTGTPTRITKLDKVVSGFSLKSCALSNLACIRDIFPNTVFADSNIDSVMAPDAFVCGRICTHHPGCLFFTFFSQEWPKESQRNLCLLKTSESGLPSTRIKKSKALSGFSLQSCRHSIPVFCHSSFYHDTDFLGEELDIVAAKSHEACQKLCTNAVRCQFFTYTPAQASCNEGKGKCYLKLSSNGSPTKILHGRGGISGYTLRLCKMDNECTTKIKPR

In general, pIC50 refers to −log10 of the IC50, conventionally taken in molar units. In the case of `O=C1CC(C(=O)N2CCC(c3cccc([C@H](Cc4ccccc4)c4ccc(-c5cc(Cl)ccc5-n5cnnn5)c[n+]4[O-])c3)CC2)C1` [Example 32, 3-[(4-{3-[(1S)-1-{5-[5-chloro-2-(1H-tetrazol-1-yl)phenyl]-1-oxidopyridin-2-yl}-2-phenylethyl]phenyl}piperidin-1-yl)carbonyl] cyclobutanone], the pIC50 in experiment [1] is 7.95; in experiment [2] it was 6.49.
On to `[O-][n+]1cc(-c2cc(Cl)ccc2-n2cnnn2)ccc1C(Cc1ccccc1)c1cccc(C2CCNCC2)c1` (racemic) [Example 20, 5-[5-chloro-2-(1H-tetrazol-1-yl)phenyl]-2-[2-phenyl-1-(3-piperidin-4-ylphenyl)ethyl] pyridine 1-oxide], for which the negative-log IC50 (pIC50) in experiment [1] was 6.67.
For `O=C(OCC1CC1)N1CCC(c2cccc([C@H](Cc3ccccc3)c3ccc(-c4cc(Cl)ccc4-n4cnnn4)c[n+]3[O-])c2)CC1` [Example 44, cyclopropyl-methyl 4-{3-[1S)-1-{5-[5-chloro-2-(1H-tetrazol-1-yl)phenyl]-1-oxidopyridin-2-yl}-2-phenylethyl] phenyl} piperidine-1-carboxylate], the pIC50 in experiment [1] is 6.73.
As to `CS(=O)(=O)N1CCC(c2cccc(C(Cc3ccccc3)c3ccc(-c4cc(Cl)ccc4-n4cnnn4)c[n+]3[O-])c2)CC1` (racemic) [Example 22, 5-[5-chloro-2-(1H-tetrazol-1-yl)phenyl]-2-(1-{3-[1-(methylsulfonyl)piperidin-4-yl]phenyl}-2-phenylethyl) pyridine 1-oxide], the pIC50 in experiment [1] was 7.23; in experiment [2], 5.98.
Turning to `O=C(O)c1cccc(-c2cccc([C@H](Cc3ccccc3)c3ccc(-c4cc(Cl)ccc4-n4cnnn4)c[n+]3[O-])c2)c1` (stereo in doubt) [Example 9, 2-(1-(3′-carboxy-[1,1′-biphenyl]-3-yl)-2-phenylethyl)-5-(5-chloro-2-(1H-tetrazol-1-yl)phenyl)pyridine 1-oxide], the pIC50 in experiment [1] is 9.57; in experiment [2] it was 7.60.
For `O=C(NCC1CCOC1)N1CCC(c2cccc([C@H](Cc3ccccc3)c3ccc(-c4cc(Cl)ccc4-n4cnnn4)c[n+]3[O-])c2)CC1` (stereo partly drawn) [Example 52, 4-{3-[(1S)-1-{5-[5-chloro-2-(1H-tetrazol-1-yl)phenyl]-1-oxidopyridin-2-yl}-2-phenylethyl]phenyl}-N-(tetrahydrofuran-3-ylmethyl) piperidine-1-carboxamide] the same measures were 8.19 and 6.42.
Turning to `O=C(OCCF)N1CCC(c2cccc([C@H](Cc3ccccc3)c3ccc(-c4cc(Cl)ccc4-n4cnnn4)c[n+]3[O-])c2)CC1` [Example 43, 2-fluoroethyl 4-{3-[(1S)-1-{5-[5-chloro-2-(1H-tetrazol-1-yl)phenyl]-1-oxidopyridin-2-yl}-2-phenylethyl]phenyl} piperidine-1-carboxylate], the negative logarithm of the IC50 (pIC50) in experiment [1] was 7.20.
Still for that read-out and setting: to `O=C(OCC(F)(F)F)N1CCC(c2cccc([C@H](Cc3ccccc3)c3ccc(-c4cc(Cl)ccc4-n4cnnn4)c[n+]3[O-])c2)CC1` [Example 46, 2,2,2-trifluoroethyl 4-{3-[(1S)-1-{5-[5-chloro-2-(1H-tetrazol-1-yl)phenyl]-1-oxidopyridin-2-yl}-2-phenylethyl]phenyl} piperidine-1-carboxylate] belongs 6.32.
On to `NC(=O)c1cccc(-c2cc(F)cc([C@H](Cc3ccccc3)c3ccc(-c4cc(Cl)ccc4-n4cnnn4)c[n+]3[O-])c2)c1` [Example 16], for which the negative-log IC50 (pIC50) was 8.48 in experiment [1] and 6.75 in experiment [2].
With `O=C(O)c1ccc(-c2cccc(C(Cc3ccccc3)c3ccc(-c4cc(Cl)ccc4-n4cnnn4)c[n+]3[O-])c2)cc1` (single isomer, unassigned) [Example 12], the negative logarithm of the IC50 (pIC50) in experiment [1] was 5.46.
`CCNC(=O)N1CCC(c2cccc([C@H](Cc3ccccc3)c3ccc(-c4cc(Cl)ccc4-n4cnnn4)c[n+]3[O-])c2)CC1` [Example 28, 4-{3-[(1S)-1-{5-[5-chloro-2-(1H-tetrazol-1-yl)phenyl]-1-oxidopyridin-2-yl}-2-phenylethyl]phenyl}-N-ethylpiperidine-1-carboxamide]: the negative logarithm of the IC50 (pIC50) was 8.14 in experiment [1] and 6.57 in experiment [2].
Turning to `O=C(O)c1cccc(-c2cccc(C(CC3CC3)c3ccc(-c4cc(Cl)ccc4-n4cnnn4)c[n+]3[O-])c2)c1` (stereo not shown) [Example 19], in experiment [1], the negative-log IC50 (pIC50) is 6.00.
For `O=C(O)c1cccc(-c2cc(F)cc([C@@H](Cc3ccccc3)c3ccc(-c4cc(Cl)ccc4-n4cnnn4)c[n+]3[O-])c2)c1` [Example 15], the pIC50 in experiment [1] was 6.63.
On to `O=C(C(F)F)N1CCC(c2cccc([C@H](Cc3ccccc3)c3ccc(-c4cc(Cl)ccc4-n4cnnn4)c[n+]3[O-])c2)CC1` [Example 37, 5-[5-chloro-2-(1H-tetrazol-1-yl)phenyl]-2-[(1S)-1-{3-[1-(difluoroacetyl)piperidin-4-yl]phenyl}-2-phenylethyl] pyridine 1-oxide], for which the pIC50 in experiment [2] is 6.27.
As to `CCCOC(=O)N1CCC(c2cccc([C@H](Cc3ccccc3)c3ccc(-c4cc(Cl)ccc4-n4cnnn4)c[n+]3[O-])c2)CC1` [Example 41, propyl 4-{3-[(1S)-1-{5-[5-chloro-2-(1H-tetrazol-1-yl)phenyl]-1-oxidopyridin-2-yl}-2-phenylethyl]phenyl} piperidine-1-carboxylate], the pIC50 in experiment [1] was 6.88.
As to `CC(C)(C)OC(=O)N1CCC(c2cccc([C@H](Cc3ccccc3)c3ccc(-c4cc(Cl)ccc4-n4cnnn4)c[n+]3[O-])c2)CC1` [Example 26, tert-butyl 4-{3-[(1S)-1-{5-[5-chloro-2-(1H-tetrazol-1-yl)phenyl]-1-oxidopyridin-2-yl}-2-phenylethyl]phenyl} piperidine-1-carboxylate], in experiment [1], the negative-log IC50 (pIC50) was 6.61.
For the molecule `CC(C)(C)OC(=O)N1CCC(c2cccc([C@@H](Cc3ccccc3)c3ccc(-c4cc(Cl)ccc4-n4cnnn4)c[n+]3[O-])c2)CC1` [Example 25, tert-butyl 4-{3-[(1R)-1-{5-[5-chloro-2-(1H-tetrazol-1-yl)phenyl]-1-oxidopyridin-2-yl}-2-phenylethyl]phenyl} piperidine-1-carboxylate], the pIC50 in experiment [1] was 6.00.
Still for that read-out and setting: as for `CC(C)COC(=O)N1CCC(c2cccc([C@H](Cc3ccccc3)c3ccc(-c4cc(Cl)ccc4-n4cnnn4)c[n+]3[O-])c2)CC1` [Example 42, 2-methylpropyl 4-{3-[(1S)-1-{5-[5-chloro-2-(1H-tetrazol-1-yl)phenyl]-1-oxidopyridin-2-yl}-2-phenylethyl]phenyl} piperidine-1-carboxylate], the figure is 6.25.
The same measure, in the same setting: as for `COC(=O)Nc1ccc(-c2cccc([C@@H](Cc3ccccc3)c3ccc(-c4cc(Cl)ccc4-n4cnnn4)c[n+]3[O-])c2)cc1` [Example 2, (R)-5-(5-Chloro-2-(1H-tetrazol-1-yl)phenyl)-2-(1-(4′-((methoxycarbonyl)amino)-[1,1′-biphenyl]-3-yl)-2-phenylethyl)pyridine 1-oxide], the figure is 6.37; as for `CCNC(=O)N1CCC(c2cccc([C@@H](Cc3ccccc3)c3ccc(-c4cc(Cl)ccc4-n4cnnn4)c[n+]3[O-])c2)CC1` [Example 27, 4-{3-[(1R)-1-{5-[5-chloro-2-(1H-tetrazol-1-yl)phenyl]-1-oxidopyridin-2-yl}-2-phenylethyl]phenyl}-N-ethyl-piperidine-1-carboxamide], 6.00.
With `CS(=O)(=O)c1ccc(-c2cccc([C@@H](Cc3ccccc3)c3ccc(-c4cc(Cl)ccc4-n4cnnn4)c[n+]3[O-])c2)cc1` [Example 5], the negative-log IC50 (pIC50) in experiment [1] was 5.00.
As for `COC(=O)N1CCC(c2cccc(C(Cc3ccccc3)c3ccc(-c4cc(Cl)ccc4-n4cnnn4)c[n+]3[O-])c2)CC1` (racemic) [Example 23, methyl 4-[3-(1-{5-[5-chloro-2-(1H-tetrazol-1-yl)phenyl]-1-oxidopyridin-2-yl}-2-phenylethyl)phenyl] piperidine-1-carboxylate], in experiment [1], the pIC50 is 7.07.
